According to PubChem BioAssay (NCI):
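GI50 marks 50% less growth. The concentration for full growth arrest is given as TGI.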

What was measured:
Test in all cases: inhibition of tumour cell growth, NCI panel, 384-well format
[1] = tested on: 786-0 renal
[2] = tested on: A498 renal
[3] = tested on: A549 NSCLC
[4] = tested on: ACHN renal
[5] = tested on: BT-549 breast
[6] = tested on: CAKI-1 renal
[7] = tested on: COLO 205 colon
[8] = tested on: DU-145 prostate
[9] = tested on: EKVX NSCLC
[10] = tested on: HCC-2998 colon
[11] = tested on: HCT-116 colon
[12] = tested on: HCT-15 colon
[13] = tested on: HL-60(TB) leukemia
[14] = tested on: HOP-62 NSCLC
[15] = tested on: HOP-92 NSCLC
[16] = tested on: HS 578T breast
[17] = tested on: HT29 colon
[18] = tested on: IGROV1 ovarian
[19] = tested on: K-562 leukemia
[20] = tested on: KM12 colon
[21] = tested on: LOX IMVI melanoma
[22] = tested on: M14 melanoma
[23] = tested on: MALME-3M melanoma
[24] = tested on: MCF7 breast
[25] = tested on: MDA-MB-231 breast
[26] = tested on: MDA-MB-435 melanoma
[27] = tested on: MDA-MB-468 breast
[28] = tested on: MOLT-4 leukemia
[29] = tested on: NCI-H226 lung
[30] = tested on: NCI-H23 lung
[31] = tested on: NCI-H322M lung
[32] = tested on: NCI-H460 NSCLC
[33] = tested on: NCI-H522 lung
[34] = tested on: NCI/ADR-RES ovarian
[35] = tested on: OVCAR-3 ovarian
[36] = tested on: OVCAR-4 ovarian
[37] = tested on: OVCAR-5 ovarian
[38] = tested on: OVCAR-8 ovarian
[39] = tested on: PC-3 prostate
[40] = tested on: RPMI-8226 leukemia
[41] = tested on: RXF 393 renal
[42] = tested on: SF-268 CNS
[43] = tested on: SF-295 CNS
[44] = tested on: SF-539 CNS
[45] = tested on: SK-MEL-2 melanoma
[46] = tested on: SK-MEL-28 melanoma
[47] = tested on: SK-MEL-5 melanoma
[48] = tested on: SK-OV-3 ovarian
[49] = tested on: SN12C renal
[50] = tested on: SNB-19 CNS
[51] = tested on: SNB-75 CNS
[52] = tested on: SR leukemia
[53] = tested on: SW-620 colon
[54] = tested on: T-47D breast
[55] = tested on: TK-10 renal
[56] = tested on: U251 glioblastoma
[57] = tested on: UACC-257 melanoma
[58] = tested on: UACC-62 melanoma
[59] = tested on: UO-31 renal

Compound `COc1cc(OC)cc(N(CCNC(C)C)c2ccc3ncc(-c4cnn(C)c4)nc3c2)c1` has a GI50 [1] of 2.17 µM, a TGI [1] of 5.11 µM and a GI50 [2] of 2.68 µM. For the same compound, the TGI [2] was 8.53 µM, the GI50 [3] was 3.73 µM and the TGI [3] was 11.2 µM. The GI50 [4] was 2.03 µM, the TGI [4] was 5.45 µM and the GI50 [5] was 0.63 µM. It also gave a TGI [5] of 5.83 µM, a GI50 [6] of 1.59 µM and a TGI [6] of 4.16 µM. The GI50 [7] was 4.59 µM, the TGI [7] was 12.6 µM and the GI50 [8] was 4.12 µM. The TGI [8] was 14 µM, the GI50 [9] was 7.26 µM and the TGI [9] was 15.7 µM. The GI50 [10] was 4.52 µM, the TGI [10] was 9.47 µM and the GI50 [11] was 2.96 µM. For the same compound, the TGI [11] was 9.31 µM, the GI50 [12] was 2.99 µM and the TGI [12] was 10.1 µM. For the same compound, the GI50 [13] was 2.51 µM, the TGI [13] was 4.65 µM and the GI50 [14] was 4.16 µM. It also gave a TGI [14] of 13 µM, a GI50 [15] of 2.91 µM and a TGI [15] of 9.38 µM. For the same compound, the GI50 [16] was 1.5 µM, the TGI [16] was 3.73 µM and the GI50 [17] was 3.97 µM. The TGI [17] was 11.2 µM, the GI50 [18] was 2.19 µM and the TGI [18] was 5.78 µM. For the same compound, the GI50 [19] was 0.89 µM, the TGI [19] was 2.15 µM and the GI50 [20] was 4.88 µM. It also gave a TGI [20] of 16.1 µM, a GI50 [21] of 2.71 µM and a TGI [21] of 6.09 µM. For the same compound, the GI50 [22] was 2.85 µM, the TGI [22] was 7.68 µM and the GI50 [23] was 2.27 µM. The TGI [23] was 4.97 µM, the GI50 [24] was 7.81 µM and the TGI [24] was 15.3 µM. The GI50 [25] was 2.75 µM, the TGI [25] was 8.18 µM and the GI50 [26] was 3.49 µM. It also gave a TGI [26] of 10.6 µM, a GI50 [27] of 2.01 µM and a TGI [27] of 4.47 µM. The GI50 [28] was 1.51 µM, the TGI [28] was 2.93 µM and the GI50 [29] was 2.57 µM. The TGI [29] was 11 µM, the GI50 [30] was 4.66 µM and the TGI [30] was 13.5 µM. For the same compound, the GI50 [31] was 3.88 µM, the TGI [31] was 12.9 µM and the GI50 [32] was 2.63 µM. It also gave a TGI [32] of 7.1 µM, a GI50 [33] of 3.44 µM and a TGI [33] of 10.3 µM. For the same compound, the GI50 [34] was 3.56 µM, the TGI [34] was 11.8 µM and the GI50 [35] was 3.62 µM. It also gave a TGI [35] of 13.1 µM, a GI50 [36] of 4.66 µM and a TGI [36] of 17.1 µM. For the same compound, the GI50 [37] was 5.47 µM, the TGI [37] was 17 µM and the GI50 [38] was 5.09 µM. The TGI [38] was 14.1 µM, the GI50 [39] was 3.61 µM and the TGI [39] was 13.1 µM. The GI50 [40] was 3.68 µM, the TGI [40] was 12.3 µM and the GI50 [41] was 1.02 µM. For the same compound, the TGI [41] was 2.89 µM, the GI50 [42] was 4.42 µM and the TGI [42] was 15.9 µM. For the same compound, the GI50 [43] was 9.3 µM, the TGI [43] was 18.3 µM and the GI50 [44] was 0.946 µM. The TGI [44] was 7.77 µM, the GI50 [45] was 2.15 µM and the TGI [45] was 4.8 µM. For the same compound, the GI50 [46] was 6.2 µM, the TGI [46] was 16.4 µM and the GI50 [47] was 1.66 µM. For the same compound, the TGI [47] was 3.66 µM, the GI50 [48] was 2.01 µM and the TGI [48] was 5.35 µM. It also gave a GI50 [49] of 3.19 µM, a TGI [49] of 10.8 µM and a GI50 [50] of 9.29 µM. For the same compound, the TGI [50] was 22 µM, the GI50 [51] was 0.132 µM and the TGI [51] was 1.69 µM. For the same compound, the GI50 [52] was 1.57 µM, the TGI [52] was 2.94 µM and the GI50 [53] was 4.34 µM. For the same compound, the TGI [53] was 14.2 µM, the GI50 [54] was 6.41 µM and the TGI [54] was 12.6 µM. It also gave a GI50 [55] of 2.79 µM, a TGI [55] of 10.1 µM and a GI50 [56] of 5.92 µM. It also gave a TGI [56] of 14.8 µM, a GI50 [57] of 2.28 µM and a TGI [57] of 4.72 µM. The GI50 [58] was 3.49 µM, the TGI [58] was 12.4 µM and the GI50 [59] was 3.04 µM. It also gave a TGI [59] of 8.81 µM.
